In patent US20250241848A1 (priority 2011, published 2025):

Tested on: axillary sweat production
Details: human, in vivo

Compound | greater effectiveness in reducing sweat production than placebo [%] | greater reduction in sweat production than the subjects in the control group [%] | reduction in sweat production (on average) [mg] | subjects with at least a 30% reduction in sweat production compared to Baseline visit [%]
CCCCCCCCCCCCCC(=O)OC(C)C [Isopropyl Myristate] | 191 | 195 | 103 | 55
CCCOC(=O)c1ccc(O)cc1 [Propylparaben] | 245 | 337 | 177 | 70
Polysorbate 80 | 280 | 300 | 159 | 80
